According to patent publication US9611230B2, “1,3,4-oxadiazole benzoic acid compounds and their use for nonsense suppression and the treatment of disease” (PTC Therapeutics, Inc., priority 2004, dated 2017):

| SMILES | melting point |
| --- | --- |
| CN(C)c1cccc(-c2nnc(-c3cccc(C(=O)O)c3)o2)c1 [Compound 2] | 187 to 189 °C |
| CN(C)c1cccc(-c2nnc(-c3ccc(C(=O)O)cc3)o2)c1 [Compound 3] | 247 to 248 °C |
| CN(C)c1ccc(-c2nnc(-c3cccc(C(=O)O)c3)o2)cc1 [Compound 4] | 268 to 270 °C |
| CC(C)c1ccc(-c2nnc(-c3ccc(C(=O)O)cc3)o2)cc1 [Compound 5] | 262 to 265 °C |
| CC(C)c1ccc(-c2nnc(-c3cccc(C(=O)O)c3)o2)cc1 [Compound 6, 3-[5-(4-isopropylphenyl)-[1,3,4]oxadiazol-2-yl]benzoic acid] | 202 to 204 °C |
| CC(C)c1cccc(-c2nnc(-c3ccc(C(=O)O)cc3)o2)c1 [Compound 7] | 227 to 229 °C |
| CS(=O)(=O)Nc1cccc(-c2nnc(-c3ccc(C(=O)O)cc3)o2)c1 [Compound 12] | > 270 °C |
| Cc1ccc(S(=O)(=O)Nc2cccc(-c3nnc(-c4ccc(C(=O)O)cc4)o3)c2)cc1 [Compound 13, 4-{5-[3-(toluene-4-sulfonylamino)phenyl]-[1,3,4]oxadiazol-2-yl}benzoic acid] | > 275 °C |
| CC(=O)Nc1cccc(-c2nnc(-c3ccc(C(=O)O)cc3)o2)c1 [Compound 14] | > 275 °C |
| O=C(O)c1cccc(-c2nnc(-c3ccc(N4CCCCC4)cc3)o2)c1 [Compound 83] | 275 to 277 °C |
| O=C(O)c1cccc(-c2nnc(-c3ccc(N4CCN(c5ccccc5)CC4)cc3)o2)c1 [Compound 84] | 279 to 282 °C |
| CN(C)c1ccc(Cc2nnc(-c3cccc(C(=O)O)c3)o2)cc1 [Compound 85] | 220 to 222 °C |
| CN(C)c1ccc(Cc2nnc(-c3ccc(C(=O)O)cc3)o2)cc1 [Compound 86] | 243 to 245 °C |
| CC(C)(C)c1ccc(-c2nc(-c3ccc(C(=O)O)cc3)no2)cc1 [Compound 141] | 237 to 239 °C |
| O=C(O)c1cccc(-c2nnc(-c3ccc(Cl)nc3)o2)c1 [Compound 222] | 278 to 282 °C |
| CN(C)c1ccc(-c2nnc(-c3cccc(C(=O)O)c3)o2)cn1 [Compound 223] | 272 to 274 °C |
| CN(C)c1cc(-c2nnc(-c3ccc(C(=O)O)cc3)o2)ccn1 [Compound 224] | 240 to 250 °C |
| O=C(O)c1ccc(-c2nnc(-c3ccnc(Cl)c3)o2)cc1 [Compound 225] | > 285 °C |
| O=C(O)c1cccc(-c2nnc(-c3ccc(Cl)nc3Cl)o2)c1 [Compound 272] | 205 to 208 °C |
| CC(C)c1ccc(-c2coc(-c3cccc(C(=O)O)c3)n2)cc1 [Compound 276] | 235 to 237 °C |
| CN(C)C(=O)c1ccc(-c2nnc(-c3ccc(C(=O)O)cc3)o2)cc1 [Compound 278] | > 310 °C |

| SMILES | melting point |
| --- | --- |
| CN(C)C(=O)c1ccc(-c2nnc(-c3cccc(C(=O)O)c3)o2)cc1 [Compound 279] | 228 to 235 °C |
| O=C(O)c1cccc(-c2nnc(-c3ccc(N4CCCC4)cc3)o2)c1 [Compound 280] | 274 to 276 °C |
| Cc1cccc(-c2ccc(-c3nnc(-c4cccc(C(=O)O)c4)o3)cn2)c1 [Compound 282] | 274 to 275 °C |
| CC(C)c1ccc(NC(=O)c2nnc(-c3cccc(C(=O)O)c3)o2)cc1 [Compound 283] | 220 to 226 °C |
| CC(C)c1ccc(NC(=O)c2nnc(-c3ccc(C(=O)O)cc3)o2)cc1 [Compound 284] | 282 to 291 °C |
| O=C(O)c1cccc(-c2nnc(-c3ccc(C(=O)N4CCCCC4)cc3)o2)c1 [Compound 285] | 253 to 256 °C |
| O=C(O)c1ccc(-c2nnc(-c3ccc(C(=O)N4CCCCC4)cc3)o2)cc1 [Compound 286] | > 310 °C |
| CC(C)c1ccc(-c2cc(-c3cccc(C(=O)O)c3)no2)cc1 [Compound 290] | 222 to 225 °C |
| CC(C)c1ccc(-c2cc(-c3cccc(C(=O)O)c3)on2)cc1 [Compound 291] | 200 to 212 °C |
| O=C(O)c1ccc(-c2nnc(-c3ccnc(Br)c3)o2)cc1 [Compound 292] | 275 to 278 °C |
| O=C(O)c1cccc(-c2nnc(-c3ccc(Br)nc3)o2)c1 [Compound 293] | 274 to 275 °C |
| O=C(O)c1cccc(-c2nnc(-c3cc4ccccc4[nH]3)o2)c1 [Compound 315] | > 310 °C |
| O=C(O)c1cccc(-c2nnc(-c3ccc4[nH]ccc4c3)o2)c1 [Compound 316] | > 270 °C |
| O=C(O)c1cccc(-c2nnc(-c3ccc4cc[nH]c4c3)o2)c1 [Compound 317] | > 290 °C (dec.) |
| O=C(O)c1cccc(-c2nnc(-c3cccc4[nH]ccc34)o2)c1 [Compound 318] | > 310 °C |
| O=C(O)c1cccc(-c2nnc(-c3c[nH]c4ccccc34)o2)c1 [Compound 319] | 304 to 320 °C |
| CC(C)c1ccc(-c2nnc(-c3cccc(C(=O)O)c3Cl)o2)cc1 [Compound 401] | 152 to 155 °C |
| COc1ccc(-c2nnc(-c3ccc(C(C)C)cc3)o2)cc1C(=O)O [Compound 402] | 174 to 177 °C |
| O=C(O)c1cccc(-c2nc(-c3ccc(Br)cc3)n[nH]2)c1 [Compound 423] | 309 to 311 °C |
| O=C(O)c1cccc(-c2nc(-c3ccccc3F)n[nH]2)c1 [Compound 425] | > 310 °C |
| O=C(O)c1cccc(-c2nc(-c3ccc(F)cc3)n[nH]2)c1 [Compound 426] | > 310 °C |

| SMILES | melting point |
| --- | --- |
| O=C(O)c1cccc(-c2nc(-c3ccccc3)n[nH]2)c1 [Compound 427] | > 300 °C |
| O=C(O)c1cccc(-c2nc(-c3cccnc3)n[nH]2)c1 [Compound 428] | > 310 °C |
| O=C(O)c1cccc(-c2nc(-c3ccc(-c4ccccc4)cc3)n[nH]2)c1 [Compound 429] | > 300 °C |
| O=C(O)c1cccc(-c2nc(-c3ccccc3O)n[nH]2)c1 [Compound 455] | > 300 °C |
| O=C(O)c1cccc(-c2nc(-c3ccc(C(F)(F)F)cc3)n[nH]2)c1 [Compound 456] | 235 to 238 °C |
| Cc1ccc(-c2n[nH]c(-c3cccc(C(=O)O)c3)n2)cc1 [Compound 457] | > 300 °C |
| COc1cccc(-c2n[nH]c(-c3cccc(C(=O)O)c3)n2)c1 [Compound 458] | 247 to 250 °C |
| COc1ccccc1-c1n[nH]c(-c2cccc(C(=O)O)c2)n1 [Compound 459] | 287 to 290 °C |
| COc1ccc(-c2n[nH]c(-c3cccc(C(=O)O)c3)n2)cc1OC [Compound 460] | 275 to 278 °C |
| CCOc1ccc(-c2n[nH]c(-c3cccc(C(=O)O)c3)n2)cc1 [Compound 461] | 295 to 298 °C |
| O=C(O)c1cccc(-c2nc(-c3cccs3)n[nH]2)c1 [Compound 462] | 282 to 285 °C |
| O=C(O)c1cccc(-c2cc(-c3ccccc3F)on2)c1 [Compound 463] | 221 to 222 °C |
| COC(=O)c1cccc(-c2cc(-c3ccccc3F)on2)c1 [Compound 464] | 112 to 113.5 °C |
| O=C(O)c1cccc(-c2cc(-c3cccc(F)c3)on2)c1 [Compound 475] | 242 to 243 °C |
| O=C(O)c1cccc(-c2cc(-c3ccc(F)cc3)on2)c1 [Compound 476] | 266.5 to 268 °C |
| O=C(O)c1cccc(-c2cc(-c3ccccc3)on2)c1 [Compound 477] | 245 to 247 °C |
| O=C(O)c1cccc(-c2cc(-c3ccc(F)cc3F)on2)c1 [Compound 478] | 260 to 262 °C |
| COc1ccc(-c2cc(-c3cccc(C(=O)O)c3)no2)cc1 [Compound 480] | 249.5 to 251 °C |
| COc1cccc(-c2cc(-c3cccc(C(=O)O)c3)no2)c1 [Compound 481] | 201 to 203 °C |
| O=C(O)c1cccc(-c2cc(-c3ccc(Br)cc3F)on2)c1 [Compound 482] | 283.5 to 285 °C |
| O=C(O)c1cccc(-c2noc(-c3ccccc3)c2C(=O)O)c1 [Compound 483] | 255 to 257 °C |

| SMILES | melting point |
| --- | --- |
| O=C(O)c1cccc(-c2noc(-c3ccccc3)c2CO)c1 [Compound 484] | 215 to 216 °C |
| O=C(O)c1cccc(-c2noc(-c3ccccc3)c2C=NO)c1 [Compound 486] | 198 to 202 °C |
| N#Cc1c(-c2cccc(C(=O)O)c2)noc1-c1ccccc1 [Compound 487] | 249 to 250 °C |
| O=C(O)c1cccc(-c2cc(-c3ccc(F)cc3F)no2)c1 [Compound 499] | > 278.5 °C |
| COc1ccc(-c2cc(-c3cccc(C(=O)O)c3)on2)cc1 [Compound 500] | 246 to 247 °C |
| O=C(O)c1cccc(-c2cc(-c3ccccc3F)no2)c1 [Compound 501] | 231 to 232 °C |
| O=C(O)c1cccc(-c2cc(-c3cccc(F)c3)no2)c1 [Compound 502] | 264 to 265 °C |
| O=C(O)c1cccc(-c2cc(-c3ccc(F)cc3)no2)c1 [Compound 504] | 273 to 274.5 °C |
| Cc1ccc(-c2cc(-c3cccc(C(=O)O)c3)on2)cc1 [Compound 505] | 253 to 254 °C |
| O=C(O)c1cccc(-c2nc(-c3cccc(F)c3)no2)c1 [Compound 507] | 221.5 to 223 °C |
| O=C(O)c1cccc(-c2nc(-c3ccc(Cl)cc3)no2)c1 [Compound 508] | 299 to 300 °C |
| COc1ccc(-c2noc(-c3cccc(C(=O)O)c3)n2)cc1 [Compound 509] | 281.5 to 283 °C |
| O=C(O)c1cccc(-c2nc(-c3ccc4c(c3)OCO4)no2)c1 [Compound 510] | 245 to 246 °C |
| O=C(O)c1cccc(-c2nc(-c3ccc(OC(F)(F)F)cc3)no2)c1 [Compound 511] | 217 to 218 °C |
| Cc1ccc(-c2noc(-c3cccc(C(=O)O)c3)n2)cc1 [Compound 512] | 243 to 244 °C |
| O=C(O)c1cccc(-c2nc(-c3ccc(C(F)(F)F)cc3)no2)c1 [Compound 513] | 249.5 to 251 °C |
| O=C(O)c1ccc(-c2cc(-c3ccccc3F)on2)cc1 [Compound 529] | 292.5 to 293.5 °C |
| O=C(O)c1ccc(-c2cc(-c3ccc(F)cc3)on2)cc1 [Compound 530] | 318 to 319 °C |
| O=C(O)c1ccc(-c2cc(-c3ccc(F)cc3F)on2)cc1 [Compound 531] | 317 to 319 °C |
